Patent US20110124888A1, “STYRYLBENZOFURAN DERIVATIVES AS INHIBITORS FOR BETA-AMYLOID FIBRIL FORMATION AND PREPARATION METHOD THEREOF” (Korea Institute of Science and Technology, priority 2008, published 2011)

System: transgenic double tg mice (APPswe, PSEN1 dE9)
Test: In vivo fear conditioning test in transgenic mice
Conditions: for Increase rate (fold) of freezing: 5 to 12 months of age, based on the freezing (%) of Tg vehicle group
Protocol: The tails of 3-week old mice born from Male B6C3-Tg (APPswe, PSEN1 dE9, Jackson Laboratory Co., Maine, A) and female B6C3F1 (central Lab. Animal Inc., Korea) were cut in lengths of about 0.5 cm (tail biopsy). The genomic DNAs were extracted from the tail samples and subjected to a genotype analysis to screen transgenic double tg mice.
From 5 months to 12 months after the birth, the mice were administered orally with the compound of Example 9, in an amount of 30 mg/kg or 100 mg/kg every day. As a comparative compound, tramiprosate (Aisen, P. S. et. al., Curr. Alzheimer Res. 2007, 4, 473) was used, which binds to beta-amyloid protein to inhibit the deposition and cytotoxicity to the protein. The compounds were administrated.
3) Fear Conditioning Test
At the First day of training, the mice were placed in a conditioning box and adjusted for 2 min. The fear conditioning was performed with a conditional stimulus (CS) of 75 dB for 20 sec, together with an electrical stimulus (unconditional stimulus (US)) of 0.5 mA for final 2 sec in the conditional stimulus period. After 1 min, the animals were transferred to a cage. After 24 hrs, the retention test was performed. The animals were placed in the same conditioning box as used above and observed for 5 min. The freezing response was measured without CS and US. The freezing response is defined in the state of the animals keeping still except for breathing.

COc1ccc2cc(C=Cc3ccc(N(C)C)cc3)oc2c1 [Compound 9, 6-methoxy-2-(4-dimethylaminostyryl)benzofuran]
Increase rate (fold) of freezing (30 mg/kg orally every day): 3.2 fold | Increase rate (fold) of freezing (100 mg/kg orally every day): 3.8 fold | degree of memory compared with tramiprosate (in words) (30 and 100 mg/kg): much higher degree of memory in a dose-dependent manner
